Reference: patent US20070249673A1, “Method for administering tolperisone” (priority 2006, published 2007)

Experiment: Pharmacokinetic profile of tolperisone after single and multi-dosing (150 mg regimen over 7 days) in healthy subjects under fasted and fed conditions
Details: for AUC(0-t) / AUC(inf) / Cmax / t½ / λz / AUC(0-6): mean ± SD; for Tmax: median
[1] = Day 1 - 0800 Dose, Fasted, Females
[2] = Day 1 - 0800 Dose, Fasted, Males
[3] = Day 1 - 0800 Dose, Fasted, both sexes
[4] = Day 1 - 0800 Dose, Fed, Females
[5] = Day 1 - 0800 Dose, Fed, both sexes
[6] = Day 1, fed vs fasted, both sexes
[7] = Day 2 - 2200 Dose, Fasted, Females
[8] = Day 2 - 2200 Dose, Fasted, Males
[9] = Day 2 - 2200 Dose, Fasted, both sexes
[10] = Day 2 - 2200 Dose, Fed, Females
[11] = Day 2 - 2200 Dose, Fed, both sexes
[12] = Day 7 - 0800 Dose, Fasted, Females
[13] = Day 7 - 0800 Dose, Fasted, Males
[14] = Day 7 - 0800 Dose, Fasted, both sexes
[15] = Day 7 - 0800 Dose, Fed, Females
[16] = Day 7 - 0800 Dose, Fed, both sexes
[17] = Day 7 - 2200 Dose, Fasted, Females
[18] = Day 7 - 2200 Dose, Fasted, Males
[19] = Day 7 - 2200 Dose, Fasted, both sexes
[20] = Day 7 - 2200 Dose, Fed, Females
[21] = Day 7 - 2200 Dose, Fed, both sexes

Description: Dosing Regimen: Subjects in each cohort received tolperisone according to the following regimen.
Blood samples for the measurement of the plasma concentrations of tolperisone and metabolites M1 (4-hydroxymethyltolperisone) and M4 (4-carboxy-tolperisone) were collected at the times shown in Table 8.
Bioanalytical: Plasma concentrations of tolperisone and metabolites M1 and M4 were measured using a validated LC/MS/MS assay by Pharm-analyt Laboratory, Baden Austria. The limits of quantitation (LOQ) for tolperisone, Mi, and M4 in plasma were 0.2 ng/ML, and 0.01 μg/mL, respectively.
Pharmacokinetic Analyses: Pharmacokinetic parameters for tolperisone, M1, and M4 were calculated using non-compartmental analysis. Only plasma concentrations greater than or equal to the LOQ for the respective assay were used in the pharmacokinetic analyses. Actual blood sampling times were used in all pharmacokinetic analyses. […] All pharmacokinetic calculations were done using SAS® for Windows® Version 9.1.3.
The maximum plasma concentration (Cmax) and time to Cmax (Tmax) were taken directly from the data. The elimination rate constant, λz, was calculated as the negative of the slope of the terminal log-linear segment of the plasma concentration-time curve. The range of data to be used for each subject and treatment was determined by visual inspection of a semi-logarithmic plot of concentration versus time. Elimination half-life (t½) was calculated according to the following equation: [formula] Area under the curve to the final sample with a concentration greater than or equal to the LOQ [(AUC(0-t)] was calculated using the linear trapezoidal method and extrapolated to infinity [AUC(inf)] using: [formula] where Ctf is the final concentration≧LOQ.
The maximum plasma concentration (Cmax) and time to Cmax (Tmax) were taken directly from the data.
The maximum plasma concentration (Cmax) and time to Cmax (Tmax) were taken directly from the data. The elimination rate constant, λz, and half-life, t½, were calculated as described for the 0800 dose on Day 1 (above). Areas under the curve to the final sample with a concentration greater than or equal to the LOQ [(AUC(O-t)] and over the 6-hour dosing interval [AUC(0-6)] were calculated using the linear trapezoidal method.

AUC(0-t) [1]: 2.79 ± 0.37 (3) h · μg/mL
AUC(inf) [1]: 2.86 ± 0.40 (3) h · μg/mL
Cmax [1]: 1.31 ± 0.05 (3) μg/mL
t½ [1]: 0.99 ± 0.04 (3) h
λz [1]: 0.6981 ± 0.0253 (3) h^−1
Tmax [1]: 1.00 (3) h
AUC(0-t) [2]: 2.26 ± 0.42 (7) h · μg/mL
AUC(inf) [2]: 2.34 ± 0.44 (7) h · μg/mL
Cmax [2]: 1.31 ± 0.44 (7) μg/mL
t½ [2]: 1.10 ± 0.08 (7) h
λz [2]: 0.6321 ± 0.0488 (7) h^−1
Tmax [2]: 0.75 (7) h
AUC(0-t) [3]: 2.42 ± 0.46 (10) h · μg/mL
AUC(inf) [3]: 2.49 ± 0.48 (10) h · μg/mL
Cmax [3]: 1.31 ± 0.36 (10) μg/mL
t½ [3]: 1.07 ± 0.088 (10) h
λz [3]: 0.6519 ± 0.0524 (10) h^−1
Tmax [3]: 0.88 (10) h
AUC(0-t) [4]: 2.74 ± 0.74 (4) h · μg/mL
AUC(inf) [4]: 2.94 ± 0.84 (4) h · μg/mL
Cmax [4]: 1.02 ± 0.18 (4) μg/mL
t½ [4]: 1.16 ± 0.21 (4) h
λz [4]: 0.6189 ± 0.1389 (4) h^−1
Tmax [4]: 2.00 (4) h
AUC(0-t) (Day 1 - 0800 Dose, Fed, Males): 2.32 ± 0.70 (6) h · μg/mL
AUC(inf) (Day 1 - 0800 Dose, Fed, Males): 2.43 ± 0.76 (6) h · μg/mL
Cmax (Day 1 - 0800 Dose, Fed, Males): 1.27 ± 0.45 (6) μg/mL
t½ (Day 1 - 0800 Dose, Fed, Males): 1.17 ± 0.19 (6) h
λz (Day 1 - 0800 Dose, Fed, Males): 0.6047 ± 0.0938 (6) h^−1
Tmax (Day 1 - 0800 Dose, Fed, Males): 0.88 (6) h
AUC(0-t) [5]: 2.49 ± 0.70 (10) h · μg/mL
AUC(inf) [5]: 2.64 ± 0.79 (10) h · μg/mL
Cmax [5]: 1.17 ± 0.38 (10) μg/mL
t½ [5]: 1.16 ± 0.19 (10) h
λz [5]: 0.6104 ± 0.1067 (10) h^−1
Tmax [5]: 1.50 (10) h
decrease in the mean value for Cmax on administration with food [6]: 11%
increase in the mean value for AUC(inf) on administration with food [6]: 6%
Cmax [7]: 0.96 ± 0.48 (3) μg/mL
Tmax [7]: 1.00 (3) h
Cmax [8]: 0.53 ± 0.32 (7) μg/mL
Tmax [8]: 1.50 (7) h
Cmax [9]: 0.66 ± 0.40 (10) μg/mL
Tmax [9]: 1.25 (10) h
Cmax [10]: 0.82 ± 0.41 (4) μg/mL
Tmax [10]: 1.25 (4) h
Cmax (Day 2 - 2200 Dose, Fed, Males): 0.75 ± 0.42 (6) μg/mL
Tmax (Day 2 - 2200 Dose, Fed, Males): 1.00 (6) h
Cmax [11]: 0.78 ± 0.40 (10) μg/mL
Tmax [11]: 1.00 (10) h
mean AUC(0-6) under fed conditions lower than fasted (Day 7, 0800 dose, both sexes): 3%
mean Cmax under fed conditions lower than fasted (Day 7, 0800 dose, both sexes): 28%
AUC(0-6) [12]: 2.86 ± 0.42 (3) h · μg/mL
Cmax [12]: 1.57 ± 0.25 (3) μg/mL
t½ [12]: 1.12 ± 0.08 (3) h
λz [12]: 0.6226 ± 0.0416 (3) h^−1
Tmax [12]: 0.75 (3) h
AUC(0-6) [13]: 2.06 ± 0.39 (7) h · μg/mL
Cmax [13]: 1.04 ± 0.32 (7) μg/mL
t½ [13]: 1.20 ± 0.07 (7) h
λz [13]: 0.5809 ± 0.0358 (7) h^−1
Tmax [13]: 0.75 (7) h
AUC(0-6) [14]: 2.30 ± 0.54 (10) h · μg/mL
Cmax [14]: 1.19 ± 0.38 (10) μg/mL
t½ [14]: 1.17 ± 0.081 (10) h
λz [14]: 0.5934 ± 0.0406 (10) h^−1
Tmax [14]: 0.75 (10) h
AUC(0-6) [15]: 2.31 ± 0.39 (4) h · μg/mL
Cmax [15]: 0.95 ± 0.45 (4) μg/mL
t½ [15]: 1.10 ± 0.20 (3) h
λz [15]: 0.6452 ± 0.1199 (3) h^−1
Tmax [15]: 2.00 (4) h
AUC(0-6) (Day 7 - 0800 Dose, Fed, Males): 2.17 ± 0.57 (6) h · μg/mL
Cmax (Day 7 - 0800 Dose, Fed, Males): 0.80 ± 0.24 (6) μg/mL
t½ (Day 7 - 0800 Dose, Fed, Males): 1.21 ± 0.30 (6) h
λz (Day 7 - 0800 Dose, Fed, Males): 0.5978 ± 0.1116 (6) h^−1
Tmax (Day 7 - 0800 Dose, Fed, Males): 1.75 (6) h
AUC(0-6) [16]: 2.23 ± 0.49 (10) h · μg/mL
Cmax [16]: 0.86 ± 0.32 (10) μg/mL
t½ [16]: 1.17 ± 0.26 (09) h
λz [16]: 0.6136 ± 0.1092 (09) h^−1
Tmax [16]: 2.00 (10) h
Cmax [17]: 1.40 ± 0.21 (3) μg/mL
Tmax [17]: 1.50 (3) h
Cmax [18]: 0.844 ± 0.243 (7) μg/mL
Tmax [18]: 1.03 (7) h
Cmax [19]: 1.01 ± 0.35 (10) μg/mL
Tmax [19]: 1.27 (10) h
Cmax [20]: 0.99 ± 0.25 (4) μg/mL
Tmax [20]: 1.25 (4) h
Cmax (Day 7 - 2200 Dose, Fed, Males): 0.94 ± 0.25 (6) μg/mL
Tmax (Day 7 - 2200 Dose, Fed, Males): 1.04 (6) h
Cmax [21]: 0.96 ± 0.24 (10) μg/mL
Tmax [21]: 1.04 (10) h
accumulation (increase in Cmax over the seven days of dosing) (seven days of dosing, up to 150 mg three times daily): little or no accumulation
mean elimination half-life (summary, not dependent on sex, food or duration of dosing): ~1.1 h
Structure (SMILES): CC(CN1CCCCC1)C(=O)c1ccc(C(=O)O)cc1 (racemic) [Metabolite M4, 4-carboxy-tolperisone]
